The text below walks through data of patent US10626364B2, “Method for increasing the glutathione level in cells” (Merck Patent GmbH, priority 2015, dated 2020).

Format in all cases: cell-based
One assay has as its system CHO suspension cell line. The assay is described as follows: Bioreactor fed-batch experiment, IgG concentration in the supernatant (Cedex BioHT, turbidometric method). To be noted: 15 mM SS in neutral pH main Feed-220, compared to standard (150 mM L-cysteine in separate alkaline feed); FIG. 1. The protocol:
Bioreactor Fed-Batch Experiment in Cellvento® CHO 220 Medium and Feed 220 Using a CHO Suspension Cell Line in 1.2 L Glass Bioreactors.
15 mM S-sulfo-L-cysteine (SS) was integrated in the neutral pH main Feed-220 (n=5). Feed was added at 3% (v/v) at day 3 and 6% (v/v) at days 5, 7, 9 and 14. In the control condition, the feed without SS was added at the same ratios whereas 150 mM L-cysteine was added separately in an alkaline feed and added at following ratios 0.3% (v/v) at day 3 and 6% (v/v) at days 5, 7, 9, 14 (n=2). pH was controlled at 6.95+/−0.15. Dissolved oxygen concentration was controlled at 50% air saturation by sparging with pure oxygen and air via an open pipe sparger. Temperature was set at 37° C. and shifted from 37° C. to 33° C. on day 5 of culture. Agitation was maintained at 140 rpm. The IgG concentration in the supernatant was measured using the Cedex BioHT with a turbidometric method. It can be seen that the titer (IgG concentration) is higher with SS compared to standard.

For assay [1], the system named is CHO cells. The assay is described as follows: Intracellular reactive species in fed-batch, Carboxy-H2DCFDA staining. To be noted: 15 mM SSC condition vs control condition, FIG. 2. The protocol: Intracellular Reactive Species in CHO Cells in a Fed-Batch Using S-Sulfocysteine Vs the Control Process
Intracellular reactive species were quantified using 6-carboxy-2′,7′-dichlorodihydrofluorescein diacetate staining (Carboxy H2DCFDA, Life Technologies). The increase in fluorescence due to oxidative reactions was determined using a Perkin Elmer fluorescence reader. For these experiments, measurements were done during fed batch experiments comparing the control condition and 15 mM SSC condition. Samples were taken every day and analyzed immediately. Briefly, 3×10^5 cells were centrifuged (1200 rpm, 5 min) and either resuspended in PBS (negative control) or loaded with 50 μM Carboxy-H2DCFDA and incubated for 20 min at 37° C. and 1000 rpm. Cells were then centrifuged, resuspended in PBS and analyzed using the plate reader (n=3 for both conditions).

Assay [2] concerns CHO cells. The assay is described as follows: Intracellular total glutathione (GSH and GSSG) during fed-batch, UPLC. The following applies: equivalent amounts of cysteine or S-sulfocysteine, compared to cells with cysteine. The protocol:
Intracellular Total Glutathione in CHO Cells During a Fed-Batch Using S-Sulfocysteine Vs the Control Process
To quantify intracellular total glutathione, cells were washed three times in cold PBS and frozen at −20° C. for further analysis. To inhibit the activity of potential Cys-converting enzymes, 12×10^6 cells were lysed in 100 μl of phosphoSafe reagent (Merck Millipore) containing four phosphatase inhibitors: sodium fluoride, sodium vanadate, β-glycerophosphate and sodium pyrophosphate and supplemented with 20 mM iodoacetamide (alkylation of all enzyme containing one cysteine in the active site). The glutathione concentrations (GSH and GSSG) were determined via UPLC using a pre-column derivatization relying on AccQ Tag Ultra® reagent kit. Derivatization, chromatography and data analysis were carried out following the supplier recommendations (Waters, Milford, Mass.). Total glutathione was obtained by addition of GSH and GSSG and normalized to the concentration obtained in the control condition each day of the FB process.

For `N[C@H](CSS(=O)(=O)O)C(=O)O` [S-sulfocysteine, (S)-2-amino-3-sulfosulfanylpropanoic acid], the “titer (IgG concentration)” value in the assay on CHO suspension cell line is “higher”. For the same compound, the “fluorescence intensity (intracellular reactive species)” value in the assay with CHO cells [1] is on record as “lower fluorescence intensity”. Also, in the assay on CHO cells [2], the “amount of GSH in cells” value is reported as “higher amount of GSH”.
